{"source": "patent US20120322886A1", "about": "“USE OF A SATURATED AMINES COMPOUND IN MANUFACTURE OF MEDICAMENTS FOR […] HEMATOPOIETIC STEM CELL” (Institute of Transfusion Medicine, Academy of Mili -tary …, priority 2009, published 2012)", "key": {"[1]": {"test_system": "CD34+ cells in peripheral blood", "test": "Percentage of CD34+ cells in peripheral blood by flow cytometry", "format": "in vivo, C57 mice", "settings": "5 mg/kg hypodermic injection, 4 h post injection, tail blood; compared to DMSO and G-CSF (FIG. 2)", "protocol": "9 C57 mice (Experimental animal center, Academy of Military Medical Sciences), male, were randomly divided into 3 groups: DMSO (Beijing Chemical Inc.) group with 3 mice, G-CSF (Xiamen Baote Biotechnology Inc.) group with 3 mice, TA01 group with 3 mice. Injection volume was calculated on the basis of 5 mg/kg body weight, and the medium for the injection was TE buffer with pH 7.5-8.5. At 4 h post hypodermic injection, 100 μL blood was harvested from tail and treated with RBC lysis buffer (Jingmei Biotechnology Inc.), wherein, the volume ratio of the blood to the RBC lysis buffer was 1:10. The two were uniformly mixed, stood for 10-15 min under room temperature, and then centrifuged for 6 min at 1500 rpm/min. After removing the supernatant, 100 ul 1% (v/v) serum (Hyclone Inc.) was added and mixed. Then 0.75 ul purified anti-mouse CD34 (Biolegend Inc) was added (operated on a superclean bench), mixed, and incubated for 1-2 h under room temperature. The mixture was added up to 1.5 ml with PBS containing 1% (v/v) serum, and then centrifuged for 5 min at 1500 rpm/min. After removing the supernatant, 100 ul 1% (v/v) serum was added and mixed. Then 2 ul Goat anti Mice antibody labeled with FITC (Beijing Zhongshanjinqiao Biotechnology Limited Co.) was added, mixed and incubated for 30 min under room temperature. […]"}, "[2]": {"test_system": "MNCs in peripheral blood", "test": "CFU and CFU-GM generated by MNCs in peripheral blood (semisolid medium culture)", "format": "in vivo, C57 mice", "settings": "5 mg/kg hypodermic injection, blood at 4 h, MNCs cultured 7 days; compared to DMSO and G-CSF (FIG. 4)", "protocol": "9 C57 mice, male, were randomly divided into 3 groups: DMSO group with 3 mice, G-CSF group with 3 mice, TA01 group with 3 mice. Injection volume was calculated on the basis of 5 mg/kg body weight, and the medium for injection was TE buffer with pH 7.5-8.5. At 4 h post hypodermic injection, the eyeballs were extracted and the peripheral blood was collected into a 10 ml centrifuge tube which was rinsed with heparin (Tianjin Haoyang Bioproduct Technology Limited Co.) in advance, and then PBS (Hyclone Inc.) was added up to 5 ml and mixed. Mouse percoll (Tianjin Haoyang Bioproduct Technology Limited Co.) was preloaded into vials at 5 ml/vial (operated on a superclean bench), and then the blood mixed with PBS was slightly impregnated into the upper layer of the percoll and centrifuged for 20 min at 2000 rpm/min. Cells in the middle layer were transferred into a new 10 ml centrifuge tube which was filled up to 10 ml with PBS, and centrifuged for 5 min at 1500 rpm/min to remove PBS in the supernatant. The tube was filled up to 10 ml with PBS, centrifuged for another 5 min at 1500 rpm/min to remove PBS in the supernatant. Then, the tube was filled up to 1 ml with PBS. The number of cells was then counted and the number of the mononuclear cells (MNCs) per ml of the solution was calculated. […] Finally, CFU and CFU-GM were counted."}, "[3]": {"test_system": "mice receiving a lethal irradiation", "test": "Survival of lethally irradiated mice after transplant of mobilized peripheral blood MNCs", "format": "in vivo, C57 mice", "settings": "7.0 Gy 60Co irradiation; tail vein injection of MNCs from donors given 5 mg/kg, 4 h; survival in 30 days; compared to DMSO and G-CSF (FIG. 5)", "protocol": "9 C57 mice, male, were randomly divided into 3 groups, and then received a whole body irradiation by ^60Co γ ray at 2.72 Gy/min with a volume of 7.0 Gy. 9 C57 mice, male, were randomly divided into 3 groups: DMSO group with 3 mice, G-CSF group with 3 mice, and TA01 group with 3 mice. Injection volume was calculated on the basis of 5 mg/kg body weight, and the medium for injection was TE buffer with pH 7.5-8.5. At 4 h post hypodermic injection, the eyeballs were extracted and peripheral blood was collected into a 10 ml centrifuge tube which was rinsed with heparin in advance, and then PBS was added up to 5 ml and mixed. Mouse percoll (Tianjin Haoyang Bioproduct Technology Limited Co.) was preloaded into vials at 5 ml/vial (operated on a superclean bench), and then the blood mixed with PBS was slightly impregnated to the upper layer of the percoll and centrifuged for 20 min at 2000 rpm/min. Cells in the middle layer were transferred into a new 10 ml centrifuge tube which was filled up to 10 ml with PBS, centrifuged for 5 min at 1500 rpm/min to remove PBS in the supernatant. The tube was filled up to 10 ml with PBS, and centrifuged for another 5 min at 1500 rpm/min to remove PBS in the supernatant. Then the tube was filled up to 0.5 ml with PBS. […] The number of survival mice in 30 days was counted."}, "[4]": {"test_system": "hematopoietic stem cells", "test": "Mobilization of hematopoietic stem cells into peripheral blood (overall conclusion)", "format": "in vivo", "settings": "summary statement; verification processes for other compounds not described"}, "[5]": {"test_system": "WBCs in peripheral blood", "test": "Number of WBCs in peripheral blood (Sysmex Microcell Counter)", "format": "in vivo, C57 mice", "settings": "5 mg/kg hypodermic injection, 4 h post injection, tail blood; compared to DMSO and G-CSF (FIG. 3)", "protocol": "9 C57 mice, male, were randomly divided into 3 groups: DMSO group with 3 mice, G-CSF group with 3 mice, and TA01 group with 3 mice. Injection volume was calculated on the basis of 5 mg/kg body weight, and the medium for injection was TE buffer with pH 7.5-8.5. At 4 h post hypodermic injection, 10 μl blood was harvested from tail and treated with 2 ml cell diluting buffer (Jinnan Bolai Biotechnology Limited Co.). The number of WBCs was determined by a Sysmex Microcell Counter."}}}
{"smiles": "CN(C)CCN(CCN(C)C)CCN(C)C", "note": "[TA01, Tris[2-(dimethylamino)ethyl]amine]", "values": [{"measurement": "percentage of CD34+ cells in peripheral blood", "setting": "[1]", "value": "can increase the percentage of CD34+ cells in peripheral blood compared to DMSO and G-CSF"}, {"measurement": "number of CFU generated by MNCs in peripheral blood", "setting": "[2]", "value": "can promote the numbers of both CFU and CFU-GM"}, {"measurement": "number of CFU-GM generated by MNCs in peripheral blood", "setting": "[2]", "value": "can promote the numbers of both CFU and CFU-GM"}, {"measurement": "survival rate of mice receiving a lethal irradiation", "setting": "[3]", "value": "survival rate of the mice receiving a lethal irradiation can be increased"}, {"measurement": "mobilization of hematopoietic stem cells into peripheral blood", "setting": "[4]", "value": "can efficiently mobilize hematopoietic stem cells into peripheral blood"}, {"measurement": "number of WBCs in peripheral blood", "setting": "[5]", "value": "can increase the number of WBCs in peripheral blood compared to DMSO and G-CSF"}]}
